# Reference: the kinase profiling compilation of Christmann-Franck et al. (2016)
# What was measured:
# Experiment in all cases: KINOMEscan competition binding
# Settings in all cases: compound 10.0 µM
# [1] = target: TEK (human) (UniProt Q02763)
# [2] = target: JAK2 JH1 catalytic (human) (UniProt O60674)
# [3] = target: ACVRL1 (human) (UniProt P37023)
# [4] = target: STK3 (human) (UniProt Q13188)
# [5] = target: NTRK1 (human) (UniProt P04629)
# [6] = target: IGF1R (human) (UniProt P08069)
# [7] = target: TNIK (human) (UniProt Q9UKE5)
# [8] = target: PHKG1 (human) (UniProt Q16816)
# Chain of PHKG1 (human) (Q16816 whole entry, looked up): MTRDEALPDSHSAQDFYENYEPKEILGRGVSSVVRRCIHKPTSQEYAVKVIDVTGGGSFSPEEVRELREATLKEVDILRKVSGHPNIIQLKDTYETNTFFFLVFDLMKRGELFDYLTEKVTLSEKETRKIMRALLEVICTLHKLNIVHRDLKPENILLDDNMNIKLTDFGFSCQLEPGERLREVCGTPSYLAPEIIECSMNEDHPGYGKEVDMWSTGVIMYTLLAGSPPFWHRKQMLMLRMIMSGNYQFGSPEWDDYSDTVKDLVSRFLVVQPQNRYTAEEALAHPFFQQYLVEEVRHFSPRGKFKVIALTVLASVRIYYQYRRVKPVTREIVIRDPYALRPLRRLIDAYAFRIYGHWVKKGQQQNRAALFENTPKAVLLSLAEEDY
# [9] = target: PIK3CB (human) (UniProt P42338)
# Chain of PIK3CB (human) (P42338 whole entry, looked up): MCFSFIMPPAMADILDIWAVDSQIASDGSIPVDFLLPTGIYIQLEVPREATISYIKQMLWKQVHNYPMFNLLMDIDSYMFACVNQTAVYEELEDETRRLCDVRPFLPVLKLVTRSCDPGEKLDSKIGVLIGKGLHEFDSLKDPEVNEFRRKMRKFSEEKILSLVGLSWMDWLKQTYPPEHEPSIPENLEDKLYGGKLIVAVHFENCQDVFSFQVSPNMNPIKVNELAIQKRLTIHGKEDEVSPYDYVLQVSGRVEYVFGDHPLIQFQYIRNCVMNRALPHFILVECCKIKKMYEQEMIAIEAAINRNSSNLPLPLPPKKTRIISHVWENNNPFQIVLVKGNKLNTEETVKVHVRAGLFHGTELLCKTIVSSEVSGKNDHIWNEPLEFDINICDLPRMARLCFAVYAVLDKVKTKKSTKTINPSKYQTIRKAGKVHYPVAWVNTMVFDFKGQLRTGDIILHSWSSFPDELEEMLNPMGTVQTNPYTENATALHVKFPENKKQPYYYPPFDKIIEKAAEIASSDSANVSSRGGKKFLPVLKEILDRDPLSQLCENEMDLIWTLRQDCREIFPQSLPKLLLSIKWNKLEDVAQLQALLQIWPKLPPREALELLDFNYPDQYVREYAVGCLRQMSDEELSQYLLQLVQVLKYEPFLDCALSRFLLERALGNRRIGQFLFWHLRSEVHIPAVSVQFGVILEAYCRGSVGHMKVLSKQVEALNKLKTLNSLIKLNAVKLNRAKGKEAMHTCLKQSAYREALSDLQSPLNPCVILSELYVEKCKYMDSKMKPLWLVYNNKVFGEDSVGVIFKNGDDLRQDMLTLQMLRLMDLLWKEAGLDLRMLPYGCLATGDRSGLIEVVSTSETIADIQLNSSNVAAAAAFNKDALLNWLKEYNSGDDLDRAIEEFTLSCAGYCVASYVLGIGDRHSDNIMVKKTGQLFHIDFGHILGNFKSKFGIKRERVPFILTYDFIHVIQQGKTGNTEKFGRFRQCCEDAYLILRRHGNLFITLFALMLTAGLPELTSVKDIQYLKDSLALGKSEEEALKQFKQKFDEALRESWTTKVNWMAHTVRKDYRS
# [10] = target: NEK7 (human) (UniProt Q8TDX7)
# [11] = target: JAK1 JH2 pseudokinase (human) (UniProt P23458)
# [12] = target: PRKG2 (human) (UniProt Q13237)
# [13] = target: MAP2K4 (human) (UniProt P45985)
# [14] = target: CSK (human) (UniProt P41240)
# [15] = target: NUAK1 (human) (UniProt O60285)
# [16] = target: IKBKE (human) (UniProt Q14164)
# [17] = target: MAPK15 (human) (UniProt Q8TD08)
# [18] = target: STK36 (human) (UniProt Q9NRP7)
# [19] = target: INSR (human) (UniProt P06213)
# [20] = target: FGR (human) (UniProt P09769)
# [21] = target: RAF1 (human) (UniProt P04049)
# [22] = target: PAK7 (human) (UniProt Q9P286)
# [23] = target: ZAP70 (human) (UniProt P43403)
# Chain of ZAP70 (human) (P43403 whole entry, looked up): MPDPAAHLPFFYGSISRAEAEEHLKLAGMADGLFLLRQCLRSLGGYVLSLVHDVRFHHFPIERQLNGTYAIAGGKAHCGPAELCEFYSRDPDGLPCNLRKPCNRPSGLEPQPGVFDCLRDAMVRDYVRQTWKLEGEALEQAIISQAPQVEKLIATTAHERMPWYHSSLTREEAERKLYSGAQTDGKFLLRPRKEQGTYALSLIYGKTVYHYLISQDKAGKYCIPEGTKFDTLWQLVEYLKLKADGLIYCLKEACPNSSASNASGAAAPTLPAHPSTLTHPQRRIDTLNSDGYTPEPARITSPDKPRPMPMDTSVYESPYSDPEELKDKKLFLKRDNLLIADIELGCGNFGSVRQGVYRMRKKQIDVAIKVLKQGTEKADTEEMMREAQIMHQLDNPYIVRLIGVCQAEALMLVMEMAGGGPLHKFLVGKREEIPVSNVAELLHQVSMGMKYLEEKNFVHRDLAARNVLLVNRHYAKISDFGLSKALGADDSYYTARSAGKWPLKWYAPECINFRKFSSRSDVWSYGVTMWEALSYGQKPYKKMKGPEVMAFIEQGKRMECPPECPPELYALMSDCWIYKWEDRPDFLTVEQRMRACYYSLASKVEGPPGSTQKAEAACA
# [24] = target: PDGFRA (human) (UniProt P16234)
# [25] = target: PIK3C2B (human) (UniProt O00750)
# [26] = target: PRKCQ (human) (UniProt Q04759)
# Chain of PRKCQ (human) (Q04759 whole entry, looked up): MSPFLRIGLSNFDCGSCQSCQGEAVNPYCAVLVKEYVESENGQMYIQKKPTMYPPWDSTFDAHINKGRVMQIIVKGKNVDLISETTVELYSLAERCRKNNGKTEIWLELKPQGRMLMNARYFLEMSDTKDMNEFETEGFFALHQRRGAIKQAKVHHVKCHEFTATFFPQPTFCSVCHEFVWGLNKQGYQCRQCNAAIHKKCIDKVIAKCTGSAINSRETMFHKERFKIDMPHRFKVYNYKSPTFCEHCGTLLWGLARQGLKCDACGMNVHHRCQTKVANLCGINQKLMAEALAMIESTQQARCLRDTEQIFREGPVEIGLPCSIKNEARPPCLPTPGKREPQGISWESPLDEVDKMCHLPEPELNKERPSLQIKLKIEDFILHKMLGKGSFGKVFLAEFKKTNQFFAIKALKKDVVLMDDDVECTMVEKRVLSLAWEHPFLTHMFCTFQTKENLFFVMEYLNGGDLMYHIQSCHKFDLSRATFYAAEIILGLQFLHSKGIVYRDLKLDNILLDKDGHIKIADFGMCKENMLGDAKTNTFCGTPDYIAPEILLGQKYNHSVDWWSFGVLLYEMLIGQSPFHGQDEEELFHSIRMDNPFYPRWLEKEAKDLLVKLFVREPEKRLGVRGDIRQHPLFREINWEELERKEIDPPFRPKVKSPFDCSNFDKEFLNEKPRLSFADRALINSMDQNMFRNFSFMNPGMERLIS
# [27] = target: ERBB4 (human) (UniProt Q15303)
# [28] = target: ACVR2A (human) (UniProt P27037)
# [29] = target: MAPK6 (human) (UniProt Q16659)
# [30] = target: NEK6 (human) (UniProt Q9HC98)
# Chain of NEK6 (human) (Q9HC98 whole entry, looked up): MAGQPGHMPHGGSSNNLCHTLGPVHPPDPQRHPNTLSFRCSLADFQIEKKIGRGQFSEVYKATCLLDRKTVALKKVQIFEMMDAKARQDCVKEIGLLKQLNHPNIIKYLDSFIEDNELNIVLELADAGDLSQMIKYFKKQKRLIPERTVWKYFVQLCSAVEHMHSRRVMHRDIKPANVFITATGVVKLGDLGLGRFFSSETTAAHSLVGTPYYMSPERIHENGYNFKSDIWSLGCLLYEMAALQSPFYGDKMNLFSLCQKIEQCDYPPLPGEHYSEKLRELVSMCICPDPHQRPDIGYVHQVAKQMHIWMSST
# [31] = target: CDC42BPG (human) (UniProt Q6DT37)
# [32] = target: WEE1 (human) (UniProt P30291)
# [33] = target: RIPK2 (human) (UniProt O43353)
# Chain of RIPK2 (human) (O43353 whole entry, looked up): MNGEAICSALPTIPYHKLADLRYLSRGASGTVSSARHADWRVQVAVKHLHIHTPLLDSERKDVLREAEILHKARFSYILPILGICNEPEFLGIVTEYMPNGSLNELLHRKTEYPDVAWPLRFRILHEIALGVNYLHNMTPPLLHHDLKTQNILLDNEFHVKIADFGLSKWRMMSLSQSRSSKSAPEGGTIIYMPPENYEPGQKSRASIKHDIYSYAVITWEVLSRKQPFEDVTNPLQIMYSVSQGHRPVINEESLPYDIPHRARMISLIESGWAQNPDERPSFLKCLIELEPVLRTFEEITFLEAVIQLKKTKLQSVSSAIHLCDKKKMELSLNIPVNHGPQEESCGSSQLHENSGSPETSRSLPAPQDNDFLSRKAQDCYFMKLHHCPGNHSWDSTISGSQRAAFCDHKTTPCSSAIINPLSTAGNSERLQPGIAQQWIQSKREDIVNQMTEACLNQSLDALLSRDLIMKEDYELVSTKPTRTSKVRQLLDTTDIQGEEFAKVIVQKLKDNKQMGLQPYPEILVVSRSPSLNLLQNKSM
# [34] = target: JAK3 JH1 catalytic (human) (UniProt P52333)
# [35] = target: BRSK2 (human) (UniProt Q8IWQ3)
# Chain of BRSK2 (human) (Q8IWQ3 whole entry, looked up): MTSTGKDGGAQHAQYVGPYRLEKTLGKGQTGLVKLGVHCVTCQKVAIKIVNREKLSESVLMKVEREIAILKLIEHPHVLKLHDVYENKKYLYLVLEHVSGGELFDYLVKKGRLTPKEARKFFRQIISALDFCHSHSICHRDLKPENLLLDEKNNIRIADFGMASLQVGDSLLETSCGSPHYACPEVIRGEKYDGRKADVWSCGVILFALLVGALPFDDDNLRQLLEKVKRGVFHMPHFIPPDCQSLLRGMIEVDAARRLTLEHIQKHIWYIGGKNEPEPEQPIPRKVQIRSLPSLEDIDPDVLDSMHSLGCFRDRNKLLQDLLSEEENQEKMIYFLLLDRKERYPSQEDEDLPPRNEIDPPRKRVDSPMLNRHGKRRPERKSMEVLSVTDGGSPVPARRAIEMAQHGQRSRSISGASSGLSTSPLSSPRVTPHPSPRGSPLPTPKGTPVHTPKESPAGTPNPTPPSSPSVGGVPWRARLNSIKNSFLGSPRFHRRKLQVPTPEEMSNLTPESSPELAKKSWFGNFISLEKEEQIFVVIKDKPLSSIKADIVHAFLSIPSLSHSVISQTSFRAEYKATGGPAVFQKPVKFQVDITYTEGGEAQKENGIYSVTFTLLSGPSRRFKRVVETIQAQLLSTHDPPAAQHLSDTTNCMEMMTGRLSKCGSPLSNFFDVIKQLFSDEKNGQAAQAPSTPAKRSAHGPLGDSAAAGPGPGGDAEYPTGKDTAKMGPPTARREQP
# [36] = target: TLK1 (human) (UniProt Q9UKI8)
# [37] = target: PRKCD (human) (UniProt Q05655)
# [38] = target: AKT1 (human) (UniProt P31749)
# Chain of AKT1 (human) (P31749 whole entry, looked up): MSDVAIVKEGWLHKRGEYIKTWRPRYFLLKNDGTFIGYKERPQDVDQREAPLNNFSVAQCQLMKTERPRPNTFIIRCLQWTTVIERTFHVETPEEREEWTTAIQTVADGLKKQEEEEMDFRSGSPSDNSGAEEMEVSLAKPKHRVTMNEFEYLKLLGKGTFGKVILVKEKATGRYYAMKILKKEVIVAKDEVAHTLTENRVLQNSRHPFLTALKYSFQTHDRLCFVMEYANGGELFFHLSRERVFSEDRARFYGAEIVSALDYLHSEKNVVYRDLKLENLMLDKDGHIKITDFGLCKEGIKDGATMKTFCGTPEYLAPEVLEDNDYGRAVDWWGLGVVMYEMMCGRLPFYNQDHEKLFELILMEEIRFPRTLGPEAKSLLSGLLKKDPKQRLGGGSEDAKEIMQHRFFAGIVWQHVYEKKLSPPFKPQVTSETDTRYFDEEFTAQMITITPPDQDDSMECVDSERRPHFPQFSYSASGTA
# [39] = target: MST4 (human) (UniProt Q9P289)
# [40] = target: MELK (human) (UniProt Q14680)
SMILES,"kinase still bound, per cent of control [1]","kinase still bound, per cent of control [2]","kinase still bound, per cent of control [3]","kinase still bound, per cent of control [4]","kinase still bound, per cent of control [5]","kinase still bound, per cent of control [6]","kinase still bound, per cent of control [7]","kinase still bound, per cent of control [8]","kinase still bound, per cent of control [9]","kinase still bound, per cent of control [10]","kinase still bound, per cent of control [11]","kinase still bound, per cent of control [12]","kinase still bound, per cent of control [13]","kinase still bound, per cent of control [14]","kinase still bound, per cent of control [15]","kinase still bound, per cent of control [16]","kinase still bound, per cent of control [17]","kinase still bound, per cent of control [18]","kinase still bound, per cent of control [19]","kinase still bound, per cent of control [20]",further results
Cc1ccc(NC(=O)c2cccc(C(C)(C)C#N)c2)cc1Nc1ccc2ncn(C)c(=O)c2c1,62%,100%,100%,100%,98%,95%,3.4%,100%,100%,96%,82%,100%,100%,1.2%,100%,100%,100%,88%,100%,12%,"kinase still bound, per cent of control [21]: 2.3%; kinase still bound, per cent of control [22]: 100%; kinase still bound, per cent of control [23]: 100%; kinase still bound, per cent of control [24]: 0.1%; kinase still bound, per cent of control [25]: 100%; kinase still bound, per cent of control [26]: 98%; kinase still bound, per cent of control [27]: 34%; kinase still bound, per cent of control [28]: 100%; kinase still bound, per cent of control [29]: 100%; kinase still bound, per cent of control [30]: 100%; kinase still bound, per cent of control [31]: 98%; kinase still bound, per cent of control [32]: 100%; kinase still bound, per cent of control [33]: 7%; kinase still bound, per cent of control [34]: 87%; kinase still bound, per cent of control [35]: 100%; kinase still bound, per cent of control [36]: 100%; kinase still bound, per cent of control [37]: 89%; kinase still bound, per cent of control [38]: 100%; kinase still bound, per cent of control [39]: 100%; kinase still bound, per cent of control [40]: 100%"
CCN1CCN(Cc2ccc(Nc3ncc4c(n3)N(C)c3ccccc3C(=O)N4C)cc2C(F)(F)F)CC1,85%,0%,100%,8.1%,34%,100%,100%,100%,68%,88%,0.1%,86%,100%,93%,3%,73%,100%,82%,92%,26%,"kinase still bound, per cent of control [21]: 100%; kinase still bound, per cent of control [22]: 81%; kinase still bound, per cent of control [23]: 90%; kinase still bound, per cent of control [24]: 100%; kinase still bound, per cent of control [25]: 71%; kinase still bound, per cent of control [26]: 100%; kinase still bound, per cent of control [27]: 95%; kinase still bound, per cent of control [28]: 56%; kinase still bound, per cent of control [29]: 20%; kinase still bound, per cent of control [30]: 64%; kinase still bound, per cent of control [31]: 92%; kinase still bound, per cent of control [32]: 91%; kinase still bound, per cent of control [33]: 6.4%; kinase still bound, per cent of control [34]: 9.8%; kinase still bound, per cent of control [35]: 42%; kinase still bound, per cent of control [36]: 74%; kinase still bound, per cent of control [37]: 100%; kinase still bound, per cent of control [38]: 100%; kinase still bound, per cent of control [39]: 5.6%; kinase still bound, per cent of control [40]: 75%"
